Assay results taken from patent publication US11584747B2, “Substituted pyridopyrimidinonyl compounds useful as T cell activators” (BRISTOL-MYERS SQUIBB COMPANY, priority 2019, dated 2023).
Like-named read-outs stand apart in the source and are kept apart here.

Assays:
human DGKζ = human DGKζ (Homo sapiens (Human), UniProt Q13574); test: DGKζ LIPGLO assay (extruded liposome substrate, ADP-Glo luminescence); format: biochemical
human DGKα = human DGKα (Homo sapiens (Human), UniProt P23743); test: DGKα ADPGLO assay (detergent/lipid micelle substrate); format: biochemical
human DGKα, sequence (P23743 whole entry, looked up, the tested form may be a part): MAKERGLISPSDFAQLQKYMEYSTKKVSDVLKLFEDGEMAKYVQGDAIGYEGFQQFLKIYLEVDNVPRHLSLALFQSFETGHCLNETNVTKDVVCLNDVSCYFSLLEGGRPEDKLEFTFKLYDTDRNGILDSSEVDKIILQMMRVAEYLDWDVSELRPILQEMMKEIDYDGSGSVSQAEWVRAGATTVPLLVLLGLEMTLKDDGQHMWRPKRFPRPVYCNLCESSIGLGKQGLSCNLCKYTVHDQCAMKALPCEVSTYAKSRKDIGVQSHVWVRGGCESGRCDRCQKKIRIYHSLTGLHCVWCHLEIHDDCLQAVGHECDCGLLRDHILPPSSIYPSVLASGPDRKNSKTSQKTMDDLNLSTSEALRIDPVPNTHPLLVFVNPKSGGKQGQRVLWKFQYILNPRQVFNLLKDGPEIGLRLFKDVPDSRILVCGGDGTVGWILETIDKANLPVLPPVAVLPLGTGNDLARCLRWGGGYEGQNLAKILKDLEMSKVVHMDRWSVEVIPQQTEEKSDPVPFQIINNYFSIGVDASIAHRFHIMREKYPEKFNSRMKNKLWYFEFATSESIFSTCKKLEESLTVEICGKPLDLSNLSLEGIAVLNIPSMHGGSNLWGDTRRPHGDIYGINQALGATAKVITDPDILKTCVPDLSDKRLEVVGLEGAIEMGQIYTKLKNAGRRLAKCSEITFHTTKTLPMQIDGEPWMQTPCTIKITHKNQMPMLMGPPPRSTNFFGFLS
Description: DGK Alpha ADPGLO (Truncated) IC50 (uM)
The detergent/lipid micelle was prepared by combining 15 g phosphatidylserine (Avanti 840035P) and 1 g diacylglycerol (8008110) and dissolving into 150 mL chloroform in a 2 L round bottom flask. Chloroform was removed under high vacuum by rotary evaporation. […] The lipid/detergent solution was split into 5 mL aliquots and stored at −80° C.

[1] = liposome (LIPGLO) assay, read-out: DGK zeta (liposome assay) IC50
[2] = ADPGLO assay, read-out: DGK alpha ADPGLO IC50
[3] = liposome assay, read-out: DGK zeta LIPGLO IC50
[4] = truncated DGK alpha, read-out: DGK alpha ADPGLO (Truncated) IC50

human DGKζ, sequence (Q13574 other isoform, or with tags, fused parts or gaps): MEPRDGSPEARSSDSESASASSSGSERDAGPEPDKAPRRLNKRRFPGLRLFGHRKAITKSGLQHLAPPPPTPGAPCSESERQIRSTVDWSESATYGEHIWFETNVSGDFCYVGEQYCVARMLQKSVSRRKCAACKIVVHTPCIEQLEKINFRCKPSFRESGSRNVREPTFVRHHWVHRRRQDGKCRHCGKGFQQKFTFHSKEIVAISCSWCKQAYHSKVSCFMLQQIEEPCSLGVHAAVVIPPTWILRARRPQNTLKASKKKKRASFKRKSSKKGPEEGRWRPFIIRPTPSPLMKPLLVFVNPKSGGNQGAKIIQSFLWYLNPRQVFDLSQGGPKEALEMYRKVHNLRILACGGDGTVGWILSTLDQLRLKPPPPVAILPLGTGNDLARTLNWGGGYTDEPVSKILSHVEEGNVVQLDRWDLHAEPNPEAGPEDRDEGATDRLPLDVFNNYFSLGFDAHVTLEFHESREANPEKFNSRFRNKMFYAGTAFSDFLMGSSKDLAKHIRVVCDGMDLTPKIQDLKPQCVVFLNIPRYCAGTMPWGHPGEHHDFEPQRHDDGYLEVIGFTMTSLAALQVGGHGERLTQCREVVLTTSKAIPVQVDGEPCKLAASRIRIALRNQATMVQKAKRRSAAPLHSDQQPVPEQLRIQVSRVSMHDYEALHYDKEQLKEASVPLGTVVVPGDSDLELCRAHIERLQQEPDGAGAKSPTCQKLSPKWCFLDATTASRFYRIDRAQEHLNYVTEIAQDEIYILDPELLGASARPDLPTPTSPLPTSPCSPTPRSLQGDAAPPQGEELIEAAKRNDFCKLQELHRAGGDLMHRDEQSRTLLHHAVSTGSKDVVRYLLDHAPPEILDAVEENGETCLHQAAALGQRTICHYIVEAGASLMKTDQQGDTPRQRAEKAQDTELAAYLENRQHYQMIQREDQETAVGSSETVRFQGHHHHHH

SMILES	IC50 (human DGKζ; [1]) [nM]	IC50 (human DGKα; [2]) [nM]	IC50 (human DGKζ; [3]) [nM]	IC50 (human DGKα; [4]) [nM]
CC[C@H]1CN(C(C)c2ccc(C(F)(F)F)cc2)[C@H](CC)CN1c1nc(=O)n(C)c2ccc(OC(F)F)nc12 (stereo partly drawn) [Example 444, 4-((2S,5R)-2,5-Diethyl-4-(1-(4-(trifluoromethyl)phenyl)ethyl)piperazin-1-yl)-6-(difluoromethoxy)-1-methylpyrido[3,2-d]pyrimidin-2(1H)-one]	180	400		
CCC(c1ccc(OC(F)F)cc1)N1C[C@H](CC)N(c2nc(=O)n(C)c3ccc(C#N)nc23)C[C@H]1CC (stereo partly drawn) [Example 222, 4-((2S,5R)-4-(1-(4-(difluoromethoxy)phenyl)propyl)-2,5-diethylpiperazin-1-yl)-1-methyl-2-oxo-1,2-dihydropyrido[3,2-d]pyrimidine-6-carbonitrile]			17	2
CC[C@@H]1CN(c2nc(=O)n(C)c3ccc(C#N)nc23)[C@@H](C)CN1C(c1ccc(F)cc1)c1cccc(C(F)F)n1 (stereo partly drawn) [Example 316, 4-((2 S,5R)-4-((6-(difluoromethyl)pyridin-2-yl)(4-fluorophenyl)methyl)-5-ethyl-2-methylpiperazin-1-yl)-1-methyl-2-oxo-1,2-dihydropyrido[3,2-d]pyrimidine-6-carbonitrile]	31	87		
CC[C@H]1CN(C(C)c2ccc(C3(C#N)CC3)cc2)[C@H](CC)CN1c1nc(=O)n(C)c2ccc(C#N)nc12 (stereo partly drawn) [Example 264, 4-((2S,5R)-4-(1-(4-(1-cyanocyclopropyl)phenyl)ethyl)-2,5-diethylpiperazin-1-yl)-1-methyl-2-oxo-1,2-dihydropyrido[3,2-d]pyrimidine-6-carbonitrile]			1170	750
CC[C@@H]1CN(c2nc(=O)[nH]c3ccc(C#N)nc23)[C@@H](C)CN1C(C)c1ccc(C(F)(F)F)cc1 (single isomer, unassigned) [Example 413]	750	440		
CC[C@H]1CN(C(C)c2ccc3oc(C4CC4)nc3c2)[C@H](CC)CN1c1nc(=O)n(C)c2ccc(C#N)nc12 (stereo partly drawn) [Example 254, 4-((2S,5R)-4-(1-(2-cyclopropylbenzo[d]oxazol-5-yl)ethyl)-2,5-diethylpiperazin-1-yl)-1-methyl-2-oxo-1,2-dihydropyrido[3,2-d]pyrimidine-6-carbonitrile]			2150	2850
CCOc1ccc2c(n1)c(N1C[C@@H](CC)N(C(CC)c3ccc(C(F)(F)F)cc3)C[C@@H]1CC)nc(=O)n2C (stereo partly drawn) [Example 438, 4-((2S,5R)-2,5-diethyl-4-(1-(4-(trifluoromethyl)phenyl)propyl)piperazin-1-yl)-6-ethoxy-1-methylpyrido[3,2-d]pyrimidin-2(1H)-one]	250000	175000		
CCC(c1ccc(C2CC2)cc1F)N1C[C@H](C)N(c2nc(=O)n(C)c3ccc(C#N)nc23)C[C@H]1C (stereo partly drawn) [Example 381, 4-((2S,5R)-4-(1-(4-cyclopropyl-2-fluorophenyl)propyl)-2,5-dimethylpiperazin-1-yl)-1-methyl-2-oxo-1,2-dihydropyrido[3,2-d]pyrimidine-6-carbonitrile]	3410	850		
CC[C@H]1CN(C(C)c2ccc(CN3CCCCC3)cc2)[C@H](CC)CN1c1nc(=O)n(C)c2ccc(C#N)nc12 (stereo partly drawn) [Example 282, 4-((2S,5R)-2,5-diethyl-4-(1-(4-(piperidin-1-ylmethyl)phenyl)ethyl)piperazin-1-yl)-1-methyl-2-oxo-1,2-dihydropyrido[3,2-d]pyrimidine-6-carbonitrile]			1160	150
CC[C@H]1CN(C(C)c2ccc(C(C)(C)N3CCOCC3)cc2)[C@H](CC)CN1c1nc(=O)n(C)c2ccc(C#N)nc12 (stereo partly drawn) [Example 247, 4-((2S,5R)-2,5-diethyl-4-(1-(4-(2-morpholinopropan-2-yl)phenyl)ethyl)piperazin-1-yl)-1-methyl-2-oxo-1,2-dihydropyrido[3,2-d]pyrimidine-6-carbonitrile]			840	5870
CC[C@H]1CN(C(c2ccc(F)cc2)c2cccc(C(F)F)n2)[C@H](CC)CN1c1nc(=O)n(C)c2ccc(C#N)nc12 (stereo partly drawn) [Example 257, 4-((2S,5R)-4((6-(difluoromethyl)pyridin-2-yl)(4-fluorophenyl)methyl)-2,5-diethylpiperazin-1-yl)-1-methyl-2-oxo-1,2-dihydropyrido[3,2-d]pyrimidine-6-carbonitrile]			250	170
CC[C@H]1CN(C(C)c2ccc(C(F)(F)F)cc2)[C@H](CC)CN1c1nc(=O)n(C)c2ccc(COC)nc12 (single isomer, unassigned) [Example 425]	12500	83300		
CC[C@@H]1CN(c2nc(=O)n(C)c3ccc(C#N)nc23)[C@@H](C)CN1C(c1nnc(C2CC2)o1)C(C)C (single isomer, unassigned) [Example 367]	850	120		
CC[C@@H]1CN(c2nc(=O)n(C)c3ccc(C#N)nc23)[C@@H](C)CN1C(C)c1ccc(C(F)(F)F)c(CN(C)C)c1 (stereo partly drawn) [Example 352, 4-((2S,5R)-4-(1-(3-((dimethylamino)methyl)-4-(trifluoromethyl)phenyl)ethyl)-5-ethyl-2-methylpiperazin-1-yl)-1-methyl-2-oxo-1,2-dihydropyrido[3,2-d]pyrimidine-6-carbonitrile]	2720	14900		
CC[C@H]1CN(C(C)c2ccc(C(F)(F)F)cc2)[C@H](CC)CN1c1nc(=O)n(C)c2ccc(OC)nc12 (single isomer, unassigned) [Example 427]	4450	460		
CC[C@H]1CN(C(C)c2ccc(CN3CCC(O)CC3)cc2)[C@H](CC)CN1c1nc(=O)n(C)c2ccc(C#N)nc12 (stereo partly drawn) [Example 285, 4-((2S,5R)-2,5-diethyl-4-(1-(4-((4-hydroxypiperidin-1-yl)methyl)phenyl)ethyl)piperazin-1-yl)-1-methyl-2-oxo-1,2-dihydropyrido[3,2-d]pyrimidine-6-carbonitrile]			8540	4100
CCC(c1ccc(C2CC2)cc1)N1C[C@H](C)N(c2nc(=O)n(C)c3ccc(C#N)nc23)C[C@H]1CC (stereo partly drawn) [Example 300, 4-((2S,5R)-4-(1-(4-cyclopropylphenyl)propyl)-5-ethyl-2-methylpiperazin-1-yl)-1-methyl-2-oxo-1,2-dihydropyrido[3,2-d]pyrimidine-6-carbonitrile]			22	13
CCC(c1ccc(C(F)(F)F)cc1)N1C[C@H](CC)N(c2nc(=O)n(C)c3ccc(Cl)nc23)C[C@H]1CC (single isomer, unassigned) [Example 422]	6870	230		
CCC(C1CC1)N1C[C@H](C)N(c2nc(=O)n(C)c3ccc(C#N)nc23)C[C@H]1C (stereo partly drawn) [Example 455, 4-((2S,5R)-4-(1-cyclopropylpropyl)-2,5-dimethylpiperazin-1-yl)-1-methyl-2-oxo-1,2-dihydropyrido[3,2-d]pyrimidine-6-carbonitrile]	7550	5120		
CC[C@H]1CN(C(C)c2ccc(CN3CCC(O)CC3)cc2)[C@H](CC)CN1c1nc(=O)n(C)c2ccc(C#N)nc12 (stereo partly drawn) [Example 286, 4-((2S,5R)-2,5-diethyl-4-(1-(4-((4-hydroxypiperidin-1-yl)methyl)phenyl)ethyl)piperazin-1-yl)-1-methyl-2-oxo-1,2-dihydropyrido[3,2-d]pyrimidine-6-carbonitrile]			125000	36200
CCC(c1ccc(C2CC2)cc1F)N1C[C@H](C)N(c2nc(=O)n(C)c3ccc(C#N)nc23)C[C@H]1CC (stereo partly drawn) [Example 303, 4-((2S,5R)-4-(1-(4-cyclopropyl-2-fluorophenyl)propyl)-5-ethyl-2-methylpiperazin-1-yl)-1-methyl-2-oxo-1,2-dihydropyrido[3,2-d]pyrimidine-6-carbonitrile]			5070	1770
CCC(c1ccc(OC2CC2)cc1)N1C[C@H](C)N(c2nc(=O)n(C)c3ccc(C#N)nc23)C[C@H]1CC (stereo partly drawn) [Example 311, 4-((2S,5R)-4-(1-(4-cyclopropoxyphenyl)propyl)-5-ethyl-2-methylpiperazin-1-yl)-1-methyl-2-oxo-1,2-dihydropyrido[3,2-d]pyrimidine-6-carbonitrile]	6	13		
CCC(c1ccc(OC(C)C)cc1)N1C[C@H](CC)N(c2nc(=O)n(C)c3ccc(C#N)nc23)C[C@H]1CC (stereo partly drawn) [Example 235, 4-((2S,5R)-2,5-diethyl-4-(1-(4-isopropoxyphenyl)propyl)piperazin-1-yl)-1-methyl-2-oxo-1,2-dihydropyrido[3,2-d] pyrimidine-6-carbonitrile]			780	430
CCC(c1ccc(C2CC2)cc1)N1C[C@H](C)N(c2nc(=O)n(C)c3ccc(C#N)nc23)C[C@H]1C (stereo partly drawn) [Example 379, 4-((2S,5R)-4-(1-(4-cyclopropylphenyl)propyl)-2,5-dimethylpiperazin-1-yl)-1-methyl-2-oxo-1,2-dihydropyrido[3,2-d]pyrimidine-6-carbonitrile]	3600	450		
CCC(c1ccc(C(F)(F)F)cc1)N1C[C@H](C)N(c2nc(=O)n(C)c3ccc(C#N)nc23)C[C@H]1COC (single isomer, unassigned) [Example 398]	64	90		
CC[C@H]1CN(C(C)c2ccc(C(F)(F)F)cc2)[C@H](CC)CN1c1nc(=O)n(C)c2ccc(COC)nc12 (single isomer, unassigned) [Example 424]	4590	114000		
CCC(c1ccc(C2CC2)cc1)N1C[C@H](C)N(c2nc(=O)n(C)c3ccc(C#N)nc23)C[C@H]1C (stereo partly drawn) [Example 378, 4-((2S,5R)-4-(1-(4-cyclopropylphenyl)propyl)-2,5-dimethylpiperazin-1-yl)-1-methyl-2-oxo-1,2-dihydropyrido[3,2-d]pyrimidine-6-carbonitrile]	150	160		
